We go through 1 compound from patent US8936728B2, “Chemicals for oil spill cleanup” (priority 2010, dated 2015).

In this data set the test system is fresh water minnows. As to the kind of experiment: Toxicity tests using fresh water minnows. The class given is in vivo. The conditions noted are these: test water containing 25 ppm; control water without the phosphonium bromide. As to the method:
Toxicity tests were conducted using fresh water minnows. The fresh water minnows were placed in test water containing 25 ppm dodecylbenzyldimethyl phosphonium bromide and in a control water sample without the phosphonium bromide.

As for `CCCCCCCCCCCC[P+](C)(C)Cc1ccccc1.[Br-]` [dodecylbenzyldimethyl phosphonium bromide], the “number of fresh water minnows dying over a given time in the test water versus control” value is “about the same as in the control”.
